Results on four molecules are retold here after ChEMBL document CHEMBL1125802, “Isolation and structure of the cell growth inhibitory constituents from the western Pacific marine sponge Axinella sp” (1991).

Assay [1] has as its system P388. The experiment in a line: Effect on P388 lymphocytic leukemia (PS system) cell growth. The assay is classed as functional. As to conditions: Mus musculus, read-out: ED50 (the source's name).
Assay [2] concerns P388. Nature of the assay: Effect on change in life span of P388 lymphocytic leukemia (PS system) cell growth at 100 mg/kg. The assay is classed as functional, Mus musculus.
Assay [3] relates to P388. Nature of the assay: T/C at 150 ug/kg. The assay is classed as functional, Mus musculus.
The subject of assay [4] is P388. Nature of the assay: T/C at 25 mg/kg. The assay is classed as functional, Mus musculus.
The subject of assay [5] is P388. The experiment in a line: Effect on P388 lymphocytic leukemia (PS system) cell growth […]. The assay is classed as functional. As to conditions: Mus musculus, read-out: ED50 (the source's name).

≈ marks a conversion by molar mass, not a printed value. Where a SMILES comes first, the peptide text is derived from it.

Regarding `CC(C)O.ClCCl`, the EC50 in assay [1] is 2.5 µg/mL. Besides, in assay [2], the Life span is recorded as 10%.
In turn, `C=C1C[C@@H]2CC[C@@]34C[C@H]5O[C@H]6[C@@H](O3)[C@H]3O[C@H](CC[C@@H]3O[C@H]6[C@H]5O4)CC(=O)O[C@@H]3[C@@H](C)[C@@H]4O[C@@H]5C[C@]6(C[C@@H]7O[C@]8(C[C@H](C)[C@@H]9O[C@@H]%10CC(C(O)CO)O[C@@H]%10C[C@@H]9O8)C[C@H](C)[C@@H]7O6)O[C@@H]5C[C@@H]4O[C@H]3C[C@H]3O[C@@H](CC[C@@H]1O2)C[C@@H](C)C3=C` (stereo not given in full) [HOMOHALICHONDRIN B] showed a T/C in assay [3] of 285.
As to `C=C1C[C@@H]2CC[C@@]34C[C@H]5O[C@H]6[C@@H](O3)[C@H]3O[C@H](CC[C@@H]3O[C@H]6[C@H]5O4)CC(=O)O[C@@H]3[C@@H](C)[C@@H]4O[C@@H]5C[C@]6(C[C@@H]7O[C@]8(C[C@H](C)[C@@H]9O[C@H]([C@@H](O)C[C@@H](O)CO)C[C@@H]9O8)C[C@H](C)[C@@H]7O6)O[C@@H]5C[C@@H]4O[C@H]3C[C@H]3O[C@@H](CC[C@@H]1O2)C[C@@H](C)C3=C` [HALICHONDRIN B], in assay [4], the T/C was determined as 238.
In the case of `CC(C)[C@@H]1NC(=O)[C@H](Cc2ccccc2)NC(=O)[C@@H]2CCCN2C(=O)[C@H](CC(N)=O)NC(=O)[C@H](C(C)C)NC(=O)[C@@H]2CCCN2C(=O)[C@H](C(C)C)NC1=O` (cyclo(FVVPVNP)), the EC50 in assay [5] came out at 0.21 µg/mL (≈ 0.279 µM).
